Tests used:
Phytophthora infestans = format: in vivo; conditions: 0.8 ppm active ingredient in the spray liquor; tomato leaves; after 6 days at 16-18° C.
Botrytis cinerea = assay: Activity against Botrytis cinerea on bell peppers (fruit disks, protective spray); format: in vivo; conditions: green bell pepper disks, 4 days at 18° C.
Protocol: The active ingredients, separately or together, are formulated as a 10% emulsion in a mixture of 63% by weight of cyclohexanone and 27% by weight of emulsifier, and diluted with water to the desired concentration.
Evaluation is carried out by determining the infected leaf areas in percent. These percentages are converted into efficacies. The efficacy (W) is calculated as follows using Abbot's formula: […]
α corresponds to the fungal infection of the treated plants in % and
β corresponds to the fungal infection of the untreated (control) plants in %
An efficacy of 0 means that the infection level of the treated plants corresponds to that of the untreated control plants; an efficacy of 100 means that the treated plants were not infected.
The expected efficacies of the mixtures of the active ingredients were determined using Colby's formula [R. S. Colby, Weeds 15, 20-22 (1967)] and compared with the observed efficacies.
Colby's formula: E=x+y−x·y/100
Disks of green bell peppers were sprayed to runoff point with an aqueous preparation of active ingredient which had been prepared from a stock solution comprising 10% of active ingredient, 63% of cyclohexanone and 27% of emulsifier. 2 hours after the spray coating had dried on, the fruit disks were inoculated with a spore suspension of Botrytis cinerea containing 1.7×10^6 spores per ml of a 2% strength Biomalz solution. The inoculated fruit disks were subsequently incubated in humid chambers at 18° C. for 4 days. The Botrytis infection on the diseased fruit disks was then evaluated visually.

[1] = 12.5 ppm active ingredient in the spray liquor
[2] = 50 ppm active ingredient in the spray liquor

SMILES | Efficacy in % of the untreated control (Phytophthora infestans) | Efficacy in % of the untreated control (Botrytis cinerea; [1]) | Efficacy in % of the untreated control (Botrytis cinerea; [2])
O=C(Nc1ccccc1-c1ccc(F)cc1)c1cccnc1Cl [Compound I.1] | 0% | 20% | –
O=C(Nc1ccccc1-c1ccc(Cl)cc1)c1cccnc1Cl [Compound I.2] | 0% | – | 85%
N#Cc1c(Cl)c(Cl)c(Cl)c(C#N)c1Cl [Compound II, Tetrachloroisophthalonitrile, reference compound] | 0% | 0% | 0%

Source: US6410572B1 (priority 2000, dated 2002)
